From patent US20210130411A1, “CYCLIC HEXAPEPTIDES COMPOUNDS WITH ANTI-MALARIAL ACTIVITY” (priority 2018, published 2021)
Read-outs that look alike come from different tables or passages of the source. One block for each compound: values may come before it. Where a SMILES comes first, the peptide text is derived from it. [ ]: non-standard residue; d: D form. The star is where a group is joined. Trt = c1ccc(C(c2ccccc2)(c2ccccc2)*)cc1; Sar = CNCC(=O)O; tBu = CC(C)(C)*

Assays:
P. falciparum 3D7 strain = assay: Killing rates assay, P. falciparum 3D7 intraerythrocytic form; format: cell-based, Plasmodium falciparum
Procedure: The assay was performed in P. falciparum 3D7 strain in its intraerythrocytic form. […] Each compound was renewed (washing the parasites and adding culture media and the compound again) after the first 24 hours of treatment.

[1] = tested on: P. falciparum K1 (chloroquine-resistant strain); assay: microbe, parasite or virus in culture
Procedure: For the in vitro study of the antimalarial activity against P. falciparum K1, this strain originating from Thailand that is resistant to chloroquine and pyrimethamine but sensitive to mefloquine was used. The cultures are naturally asynchronous (65-75% ring stage) and are maintained in continuous log phase growth in RPM11640 medium supplemented with 5% washed human A+erythrocytes, 25 mM HEPES, […] NaHCO3, and AlbuMAXII (lipid-rich bovine serum albumin) (GIBCO, Grand Island, N.Y.) (CM). All cultures and assays are conducted at 37° C. under an atmosphere of 5% CO2 and 5% 02, with a balance of N2.
For drug sensitivity assays, tock drug solutions are prepared in 100% DMSO (dimethylsulfoxide) at 20 mM. The compound is further diluted to the appropriate concentration using complete medium RPM11640 supplemented with 15 nM cold hypoxanthine and AlbuMAXII. Assays are performed in sterile 96-well microtitre plates, each plate contains […] of parasite culture (0.5% parasitemia, 2.5% hematocrit). Each drug is tested in triplicate and parasite growth is compared to control and blank (uninfected erythrocytes) wells. After 24 h of incubation at 37° C., 3.7 Bq of [3H]hypoxanthine is added to each well. Cultures are incubated for a further 24 h before they are harvested onto glass-fiber filter mats. The radioactivity is counted using a Wallac Microbeta 1450 scintillation counter. […] The percentage inhibition is calculated from comparison of blank and control wells, and EC50 values are calculated using Prism™. Screen. The K1 line is used. The compound is diluted threefold over 12 different concentrations with an appropriate starting concentration. The EC50 is determined by a sigmoidal dose-response analysis using Prism™. For each assay, the EC50 value for the parasite line is determined against the known antimalarials chloroquine and artesunate, plus other standard compounds appropriate for the assay.
(§1) were tested in vitro against the intraerythrocytic form of the parasite Plasmodium falciparum K1 (chloroquine-resistant strain) and Plasmodium falciparum 31D7 (chloroquine-sensitive strain). The selectivity index (SI) was determined as the ration between EC50 against murine macrophages or HepG2 cells and the EC50 against P. falciparum.

P. b. (liver st) = assay: Biological activity in vitro against the hepatic form of the parasite; format: cell-based, P. berghei
[2] = tested on: murine macrophages or HepG2 cells; assay: Selectivity index: EC50 against murine macrophages or HepG2 cells over EC50 against P. falciparum; format: cell-based; conditions: ratio of EC50 against murine macrophages or HepG2 cells to EC50 against P. falciparum
Procedure: as §1, with “falciparum. In the following Table 1 is shown the results of the EC50 obtained for each of the tested compounds against P. falciparum K1 (P. f. K1) and P. falciparum 3D7 (P. f. 3D7) and the SI calculated.” for “falciparum.”

[3] = tested on: Plasmodium falciparum 3D7 (chloroquine-sensitive strain); assay: microbe, parasite or virus in culture; format: cell-based
Procedure: For the in vitro study of the antimalarial activity against P. falciparum D7, two stock solutions were prepared: solution A (dilution of powder sample) at 20 mM and solution B at 1 mM (made by dilution of solution A). Next, the compounds were diluted 100-fold (drug solution=10 μM), then, suitable volume of drug solution was transferred in the SYBR GREEN assay plate (final concentration=10-0.15 μM). However, due to the high potency of the samples, the initial concentration was reduced in order to determine the EC50 values. The assay condition included: hematocrit at 2%, initial parasitemia 0.5% and artesunate and pyrimethamine were used as positive control. The fluorescence of each well is measured. The EC50 value of each compound was assessed in at least two independent experiments.
as §1, with “falciparum. In the following Table 1 is shown the results of the EC50 obtained for each of the tested compounds against P. falciparum K1 (P. f. K1) and P. falciparum 3D7 (P. f. 3D7) and the SI calculated.” for “falciparum.”

Plasmodium sp. = conditions: background statement, strain not stated; cited from earlier work
P. berghei = assay: Anti-malarial activity in vivo in mice inoculated with P. berghei; conditions: 50 mg/Kg oral, 3 consecutive days
[4] = Plasma pharmacokinetics after single oral administration; format: in vivo, male Swiss Albino mice
Procedure: The objective of this study was to investigate the plasma pharmacokinetics of the compound CF-88 in male Swiss Albino mice following a single oral administration. Nine animals were used in this study as Group 1 (PO: 50 mg/kg). Animals were administered with solution formulation of CF-88 in 3% DMSO and RPMI medium via oral route at 50 mg/kg. The blood samples were collected from set of three mice at each time point in labeled micro centrifuge tube containing K2EDTA solution as anticoagulant at 0.25, 0.5, 1, 2, 4, 6, 8, 12 and 24 hr. Plasma samples were separated by centrifugation of whole blood and stored below −70±10° C. until bioanalysis. All samples were processed for analysis by protein precipitation using acetonitrile and analyzed with fit-for-purpose LC-MS/MS method (LLOQ=5.16 ng/mL). Pharmacokinetic parameters were calculated using the non-compartmental analysis tool of Phoenix WinNonlin® (Version 7.0).
For the preparation of the oral formulation accurately weighed 19.93 mg of compound for PO dosing was added in a labeled bottle. The volume 0.112 mL of DMSO was added and vortexed. The volume 3.617 mL of RPMI medium was added and vortexed. The final formulation (5 mg/mL) was vortexed for 2 minutes to get finely suspended formulation.
After preparation of formulations, a volume of 200 μL was aliquoted for analysis. […] Formulations were prepared freshly prior to dosing.
Blood samples (approximately 60 μL) were collected from retro-orbital plexus of three mice at 0.25, 0.5, 1, 2, 4, 6, 8, 12 and 24 hr. Samples were collected into labeled micro-tubes, containing K2EDTA solution (20% K2EDTA solution) as an anticoagulant. Plasma was immediately harvested from the blood by centrifugation at 4000 rpm for 10 min at 4±2° C. and stored below −70° C. until bioanalysis.

[5] = 0 hrs of treatment, compound at 10×EC50
[6] = 24 hrs of treatment, compound at 10×EC50 (CF89 500 nM, SP79 30 nM)
[7] = 48 hrs of treatment, compound renewed after 24 hrs, 10×EC50
[8] = read-out: EC50 P. f. K1, intraerythrocytic form, chloroquine-resistant strain
[9] = intraerythrocytic form, chloroquine-sensitive strain, read-out: EC50 P. f. 3D7
[10] = Plasmodium falciparum, K1, read-out: EC50 P. f. K1
[11] = male, Swiss Albino, mouse, in vivo, po, 50 mg/kg
[12] = male, Swiss Albino, mouse, plasma, PO 50 mg/kg, 12 hrs after administration, read-out: plasma concentration at 12 hrs

Structure (SMILES): O=C1C(O)=C([C@H]2CC[C@H](c3ccc(Cl)cc3)CC2)C(=O)c2ccccc21 [Atovaquone]
Survival % (P. falciparum 3D7 strain; [5]): 100%
Survival % (P. falciparum 3D7 strain; [6]): 56.55%
Survival % (P. falciparum 3D7 strain; [7]): 32.02%

Structure (SMILES): C[C@@H](OC(C)(C)C)[C@@H]1NC(=O)CN(C)C(=O)[C@H](CSC(c2ccccc2)(c2ccccc2)c2ccccc2)NC(=O)CN(C)C(=O)[C@H](CSC(c2ccccc2)(c2ccccc2)c2ccccc2)NC(=O)CN(C)C1=O [SP79, Cycle-NMe-Gly-L-Thr(^t-Bu)-NMe-Gly-L-Cys(Trt)-NMe-Gly-L-Cys(Trt)] (cyclo(C(Trt)[Sar]C(Trt)[Sar]T(tBu)[Sar]))
Survival % (P. falciparum 3D7 strain; [5]): 100%
Survival % (P. falciparum 3D7 strain; [6]): 83.74%
Survival % (P. falciparum 3D7 strain; [7]): 57.48%
EC50 [1, 8]: 0.7 nM
EC50 (P. b. (liver st)): 18.6 nM
SI [2]: >140000
EC50 [3, 9]: 1 nM

EC50 [1, 10]: 20 nM
Structure (SMILES): C[C@@H]1CC[C@H]2[C@@H](C)C(=O)O[C@@H]3O[C@@]4(C)CC[C@@H]1[C@]32OO4 [Artemisinine, reference compound]
EC50 (Plasmodium sp.): 20 nM

EC50 ([3]; 3D7 (chloroquine-sensitive strain)): 3.8 nM
Structure (SMILES): CN1CC(=O)N[C@@H](CSC(c2ccccc2)(c2ccccc2)c2ccccc2)C(=O)N(C)CC(=O)N[C@@H](CSC(c2ccccc2)(c2ccccc2)c2ccccc2)C(=O)N(C)CC(=O)N[C@@H](COC(C)(C)C)C1=O [CF87, Cycle-NMe-Gly-L-Cys(Trt)-NMe-Gly-L-Ser(^t-Bu)-NMe-Gly-L-Cys(Trt)] (cyclo(C(Trt)[Sar]C(Trt)[Sar]S(tBu)[Sar]))
SI [2]: > 12500

Structure (SMILES): C[C@@H](OC(C)(C)C)[C@@H]1NC(=O)CNC(=O)[C@H](CSC(c2ccccc2)(c2ccccc2)c2ccccc2)NC(=O)CNC(=O)[C@H](CSC(c2ccccc2)(c2ccccc2)c2ccccc2)NC(=O)CN(C)C1=O [CF90, Cycle-L-Thr(^tBu)-NMe-Gly-L-Cys(Trt)-Gly-L-Cys(Trt)-Gly] (cyclo(C(Trt)GC(Trt)GT(tBu)[Sar]))
EC50 [1, 8]: 0.13 nM
SI [2]: >1 × 10^5
EC50 [3, 9]: 1.4 nM

Structure (SMILES): COC(=O)CC[C@@H]1NC(=O)CN(C)C(=O)[C@H](CSC(c2ccccc2)(c2ccccc2)c2ccccc2)NC(=O)CN(C)C(=O)[C@H](CSC(c2ccccc2)(c2ccccc2)c2ccccc2)NC(=O)CN(C)C1=O [CFfs49.5] (cyclo(C(Trt)[Sar]C(Trt)[Sar]E(OMe)[Sar]))
SI [2]: >40000
EC50 [3, 9]: 5.2 nM

Structure (SMILES): CN1CC(=O)N[C@@H](CSC(c2ccccc2)(c2ccccc2)c2ccccc2)C(=O)N(C)CC(=O)N[C@@H](CSC(c2ccccc2)(c2ccccc2)c2ccccc2)C(=O)N(C)CC(=O)N[C@@H](CCC(=O)O)C1=O [CFfs49.4, Cycle-NMe-Gly-L-Cys(Trt)-NMe-Gly-L-Cys(Trt)-NMe-Gly-L-Glu] (cyclo(C(Trt)[Sar]C(Trt)[Sar]E[Sar]))
EC50 [1, 8]: 0.2 nM
Days of survival (P. berghei): 23 ± 4 days
Parasitemia (P. berghei; Day 5): 1.1 ± 0.2
Parasitemia (P. berghei; Day 7): 1.6 ± 0.2
Parasitemia (reduction %) (P. berghei; Day 7): (46 ± 6%)
Parasitemia (P. berghei; Day 9): 4.8 ± 0.5
Parasitemia (reduction %) (P. berghei; Day 9): (50 ± 4%)
SI [2]: >20000
EC50 [3, 9]: 12 nM

Structure (SMILES): C[C@@H](OC(C)(C)C)[C@@H]1NC(=O)CN(C)C(=O)[C@H](CSC(c2ccccc2)(c2ccccc2)c2ccccc2)NC(=O)CNC(=O)[C@H](CSC(c2ccccc2)(c2ccccc2)c2ccccc2)NC(=O)CN(C)C1=O [CF88, Cycle-NMe-Gly-L-Thr(^t-Bu)-NMe-Gly-L-Cys(Trt)-Gly-L-Cys(Trt)] (cyclo(C(Trt)GC(Trt)[Sar]T(tBu)[Sar]))
EC90 ([1]; against P. falciparum K1): 1 nM
EC50 [1, 8]: 0.008 nM
clinical signs after oral administration ([4]; PO 50 mg/kg single dose): all animals were normal without any clinical signs
t1/2 ([4]; PO 50 mg/kg, plasma, 4, 6, 8 and 12 hr time points considered (r^2 = 0.7325)): 4.93 h
detected in plasma up to ([4]; PO 50 mg/kg, time after administration): 12 h
detection in plasma at 24 hrs ([4]; PO 50 mg/kg, LLOQ 5.16 ng/mL): no detection
AUCinf [4, 11]: 390.71
AUClast [4, 11]: 314.79
Cmax [4, 11]: 0.06113 µg/mL
tmax [4, 11]: 2 h
level at 12 h [4, 12]: 0.0108 µg/mL
level at time molar at 12 h [4, 12]: 0.01 µM
Days of survival (P. berghei): 25 ± 7 days
Parasitemia (P. berghei; Day 5): 0.9 ± 0.7
Parasitemia (P. berghei; Day 7): 1.7 ± 0.3
Parasitemia (reduction %) (P. berghei; Day 7): (46 ± 10%)
Parasitemia (P. berghei; Day 9): 6 ± 1
Parasitemia (reduction %) (P. berghei; Day 9): (33 ± 10%)
SI [2]: >1 × 10^6
EC50 [3, 9]: 0.25 nM

Structure (SMILES): CCN(CC)CCCC(C)Nc1ccnc2cc(Cl)ccc12 (stereo not drawn) [Chloroquine, reference compound]
Survival % (P. falciparum 3D7 strain; [5]): 100%
Survival % (P. falciparum 3D7 strain; [6]): 14.13%
Survival % (P. falciparum 3D7 strain; [7]): 7.04%
EC50 [1, 10]: 470 nM
Days of survival (P. berghei): >30 days
Parasitemia (reduction %) (P. berghei; Day 5 (96 hrs after infection)): (100%)
Parasitemia (P. berghei; Day 5): 0
Parasitemia (P. berghei; Day 7): 0
Parasitemia (reduction %) (P. berghei; Day 7): (100%)
Parasitemia (P. berghei; Day 9): 0
Parasitemia (reduction %) (P. berghei; Day 9): (100%)

EC50 ([3]; Plasmodium falciparum, 3D7, intraerythrocytic form, chloroquine-sensitive strain, read-out: EC50 P. f. 3D7): 31 nM
Structure (SMILES): CCc1nc(N)nc(N)c1-c1ccc(Cl)cc1 [Pyrimethamine]
Survival % (P. falciparum 3D7 strain; [5]): 100%
Survival % (P. falciparum 3D7 strain; [6]): 53.52%
Survival % (P. falciparum 3D7 strain; [7]): 9.59%

Structure (SMILES): C[C@H]1[C@H](OC(=O)CCC(=O)O)O[C@@H]2O[C@@]3(C)CC[C@H]4[C@H](C)CC[C@@H]1[C@@]24OO3 [Artesunate]
Survival % (P. falciparum 3D7 strain; [5]): 100%
Survival % (P. falciparum 3D7 strain; [6]): 10.01%
Survival % (P. falciparum 3D7 strain; [7]): 8.59%
EC50 [1, 10]: 3 nM
EC50 (Plasmodium sp.): 5 nM
EC50 ([3]; Plasmodium falciparum, 3D7, read-out: EC50 P. f. 3D7): 5 nM
